{"source": "patent US20230381069A1", "about": "“TOPICAL COMPOSITIONS AND METHODS OF USING THEREOF” (OHIO STATE INNOVATION FOUNDATION, priority 2016, published 2023)", "experiment": "Photolysis of thin films in petroleum jelly on quartz plates under a UV photolysis lamp", "type": "physicochemical", "experimental": "A UV photolysis lamp having a light flux of 320 mW equipped with a cutoff filter at 270-280 nm was used to evaluate the performance and stability of the sunscreen compositions prepared herein. With 3 min of exposure to the UV lamp (same position as sample, after the filter), a clear damage was observed on human skin. Typically, under hot sun, this sunburn process takes 30 min to an hour. Accordingly, the photolysis lamp used for analysis is considerably more intense than natural sunlight.\nFIGS. 4A and 4B compare the stability of avobenzone dispersed in petroleum jelly with avobenzone encapsulated in encapsulated in zeolite nanoparticles (10% zeolite, 1% AB) dispersed in petroleum jelly.\nFIG. 7 is a plot showing the long-term stability of avobenzone/nanozeolite formulations. The absorption spectra of a thin film of avobenzone encapsulated in zeolite nanoparticles (10% zeolite, 1% AB) dispersed in petroleum jelly on quartz plates was obtained following 0, 3, 5, and 12 hours of irradiation using a UV photolysis lamp."}
{"smiles": "COc1ccc(C(=O)CC(=O)c2ccc(C(C)(C)C)cc2)cc1", "note": "[avobenzone]", "values": [{"measurement": "AB decomposition in the presence of 1% OMC (octinoxate)", "setting": "petroleum jelly, photolysis for 4 hours, FIGS. 8A/8B", "value": "AB decomposition was observed after the first hour of photolysis"}, {"measurement": "degradation of avobenzone via UV spectroscopy (long-term stability)", "setting": "thin film in petroleum jelly, 0, 3, 5 and 12 hours of irradiation, FIG. 7", "value": "complete degradation of the avobenzone was observed within four hours"}]}
